Literature values in patent US20160201132A1, “GENE EXPRESSION BIOMARKERS OF LAQUINIMOD RESPONSIVENESS” (Teva Pharmaceutical Industries Ltd., priority 2013, published 2016).

Test system: RRMS patients
Settings: 106 RRMS patients vs 102 placebo treated RRMS patients; cited from earlier work

Question: For CCN(C(=O)c1c(O)c2c(Cl)cccc2n(C)c1=O)c1ccccc1 [LAQ, 5-chloro-N-ethyl-4-hydroxy-1-methyl-2-oxo-N-phenyl-1,2-dihydroquinoline-3-carboxamide], which “reduction in the cumulative number of gadolinium enhanced lesions in brain MRI” value is on record?
Answer: about 40%
